# Data: BindingDB's records for doi:10.1016/j.bmcl.2017.08.043 (Vanderbilt University, 2017)
# Target: T1, Muscarinic acetylcholine receptor M4 (Homo sapiens, UniProt P08173)
# T1 sequence (P08173 whole entry): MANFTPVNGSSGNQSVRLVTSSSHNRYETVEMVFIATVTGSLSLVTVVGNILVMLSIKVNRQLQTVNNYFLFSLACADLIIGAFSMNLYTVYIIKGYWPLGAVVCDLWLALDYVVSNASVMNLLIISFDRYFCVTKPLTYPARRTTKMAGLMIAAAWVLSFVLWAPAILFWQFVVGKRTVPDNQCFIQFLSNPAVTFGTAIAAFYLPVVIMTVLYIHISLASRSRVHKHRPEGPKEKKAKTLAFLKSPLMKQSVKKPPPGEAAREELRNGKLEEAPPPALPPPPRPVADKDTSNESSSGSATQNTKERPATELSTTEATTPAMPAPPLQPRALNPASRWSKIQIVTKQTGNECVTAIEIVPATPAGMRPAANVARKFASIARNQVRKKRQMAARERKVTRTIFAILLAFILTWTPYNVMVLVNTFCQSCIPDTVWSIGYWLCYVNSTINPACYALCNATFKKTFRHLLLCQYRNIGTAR
# Assay: ChEBML_1696020
# Description: Positive allosteric modulation of human M4 receptor expressed in CHO cells co-expressing Gqi5 assessed as increase in acetylcholine-induced calcium mobilization
smiles,measurement,value
N#Cc1cnc2ccc(F)cc2c1N1CCC(C(=O)NCc2ccccc2)CC1,EC50,897 nM
